Values quoted from earlier work in patent publication US10533225B2, “Methods and systems for monitoring, diagnosing, and treating chronic obstructive pulmonary disease” (Trustees of Boston University, priority 2012, dated 2020).

Tests used:
PI3K pathway activation = conditions: smokers with airway epithelial cell dysplasia
[1] = system: ER stress markers and airspace; conditions: mice, administration

| Structure (SMILES) | airway PI3K pathway activation (PI3K pathway activation) | ER stress markers [1] | airspace change [1] |
| --- | --- | --- | --- |
| O[C@H]1[C@H](O)[C@@H](O)[C@H](O)[C@@H](O)[C@H]1O [myo-inositol] | reversible | – | – |
| C=CC=O [acrolein] | – | increase in ER stress markers | airspace enlargement |
